How the values were obtained:
[1] = tested on: mouse colorectal cancer cell line CT26.WT; assay: Antitumor effect in allograft (syngeneic) mouse model with mouse colorectal cancer cell line CT26.WT; assay type: in vivo; details: for tumor growth (time course of tumor volume): CT26.WT subcutaneous, FIG. 1
Description: The antitumor effect of the compound according to the present invention was examined by using a syngeneic mouse tumor model with the mouse colorectal cancer cell line CT26.WT (subcutaneous transplantation).
(§1) To RPMI-1640 medium (Life Technologies, No. A1049101), 10% FBS (Biowest) and 1% penicillin streptomycin (NACALAI TESQUE, INC.) were added to prepare a cell culture medium (hereinafter, referred to as the medium 1). CT26.WT cells (ATCC) were cultured with the medium 1 in a flask in a 5% CO2 incubator.
The cell density of CT26.WT cells was adjusted with RPMI-1640 medium (containing 1% penicillin streptomycin, hereinafter, referred to as the medium 2) to 5×10^6 cells/mL; thus a cell preparation solution for transplantation was produced. Into the back of each BALB/cCrslc mouse (female, 8-week-old, Japan SLC, Inc.), 0.1 mL of the cell preparation solution for transplantation was subcutaneously transplanted. On day 3 after the transplantation of cancer cells, the cancer-bearing mice were grouped in such a manner that the means of tumor volume (see a calculation formula below) approximated to each other.
As a sample solution for administration of the test substance, a 1.5 mg/mL solution was prepared. The test substance (71.9 mg) was dissolved in DMSO (2.4 mL, NACALAI TESQUE, INC.), to which polyethylene glycol #400 (24.0 mL, NACALAI TESQUE, INC.) was added and mixed well, and 21.5 mL of 30% (w/v) aqueous solution of 2-hydroxypropyl-β-cyclodextrin (HP-β-CD, Wacker Chemical AG) was then added thereto to produce a 1.5 mg/mL sample solution for administration. […]
Forced oral administration of 0.1 mL of the test substance or a solvent per 10 g body weight on that day (15 mg/kg) was performed to each mouse with transplanted cancer cells (six mice per group) twice per day (interval: 6 hours or longer) from day 3 to day 21 after the transplantation. […] The mice were followed up until day 48 after the transplantation, and the tumor diameter of each mouse was measured to calculate the tumor volume by using the following formula several times per week for evaluation of the antitumor effect. […]

[2] = tested on: mouse B-cell lymphoma cell line A20; assay: Antitumor effect in allograft (syngeneic) mouse model with mouse B-cell lymphoma cell line A20; assay type: in vivo
Description: The antitumor effect of the compound according to the present invention was examined by using a syngeneic mouse tumor model with the mouse B-cell lymphoma cell line A20 (subcutaneous transplantation).
as §1, with “FBS (HyClone), 0.05 mM 2-mercaptoethanol,” for “FBS (Biowest)”, “medium 3). A20 cell” for “medium 1). CT26.WT cells”, “medium 3” for “medium 1”
The density of A20 cells was adjusted with the medium 2 to 5×10^7 cells/mL; thus a cell preparation solution for transplantation was produced. […]
Forced oral administration of 0.1 mL of the test substance or a solvent per 10 g body weight on that day (15 mg/kg) was performed to each mouse with transplanted cancer cells (six mice per group) twice per day (interval: 6 hours or longer) from day 3 to day 14 after the transplantation. […] The mice were followed up until day 46 after the transplantation, and the tumor diameter of each mouse was measured to calculate the tumor volume by using the same formula as in Example 1 several times per week for evaluation of the antitumor effect.
In addition, tumor was excised from each mouse on day 46 after the transplantation, and the tumor weight was measured.

Nc1nc(-c2cccc(-n3ccc4cc(C5CC5)cc(F)c4c3=O)c2CO)c2cc(C3=CCN(C4COC4)CC3)[nH]c2n1 [Compound (I-A), 2-(3-{2-amino-6-[1-(oxetan-3-yl)-1,2,3,6-tetrahydropyridin-4-yl]-7H-pyrrolo[2,3-d]pyrimidin-4-yl}-2-(hydroxymethyl)phenyl)-6-cyclopropyl-8-fluoroisoquinolin-1(2H)-one]
tumor growth (time course of tumor volume) ([1]; I-A 15 mg/kg oral twice per day in combination with anti-PD-1 antibody 10 mg/kg i.p. twice per week): significant tumor growth suppression/tumor regression effect
complete regression of tumor (mice with transplanted tumor) ([1]; I-A 15 mg/kg oral twice per day in combination with anti-PD-1 antibody 10 mg/kg i.p., CT26.WT, six mice per group): five of the six
tumor growth (time course of tumor volume) ([1]; I-A alone, 15 mg/kg oral twice per day, day 3 to 21, BALB/c mice, followed to day 48): suppressed tumor growth
tumor growth / tumor weight on day 46 after the transplantation ([2]; I-A 15 mg/kg oral twice per day (day 3 to 14) in combination with anti-PD-1 antibody 10 mg/kg i.p. twice per week, A20 subcutaneous, FIG. 2): significant tumor growth suppression/tumor regression effect
complete regression of tumor (mice with transplanted tumor) ([2]; I-A 15 mg/kg oral twice per day in combination with anti-PD-1 antibody 10 mg/kg i.p., A20, six mice per group): five of the six
